# Measurements: patent US12544375B2, “Small molecule therapeutic for parkinson's disease paired with a biomarker of therapeutic activity” (The Board of Trustees of the Leland Stanford Junior …, priority 2019, dated 2026)
# Biological target: T1, Miro2 (Homo sapiens, UniProt Q8IXI1)
# T1 construct: Miro1 Reducer had no influence on Miro2 in either healthy or PD cells; endogenous in cells; host or cells: human skin fibroblasts (Healthy-1, PD-2)
# Assay: Miro2 response to CCCP in fibroblasts, Western blotting
# Format: cell-based
# Details: healthy or PD cells, CCCP 6 hrs
# Experimental: FIG. 2A-FIG. 2F. Miro1 Reducer Eliminates the Miro1 Defect in PD Fibroblasts. (FIG. 2A) Chemical properties of Miro1 Reducer. (FIG. 2B) Wild-type flies (w^1118) were fed with DMSO alone (0 μM Miro1 Reducer) or Miro1 Reducer in DMSO at 250 μM for 7 days, and lysed and blotted as indicated. The band intensities are normalized to those of Tubulin from the same blots. n=4. (FIG. 2C-FIG. 2E) Fibroblasts were treated, lysed, and blotted as indicated. (FIG. 2C) Band intensities are normalized to those of GAPDH from the same blots and compared to “Healthy-1, no treatment” except otherwise indicated. n=4. (FIG. 2D) Band intensities are normalized to those of ATP5β from the same blots and expressed as a percentage of the mean of “0 μM Miro1 Reducer with CCCP”. Mean±S.E.M is shown. n=3. (FIG. 2E) Band intensities are normalized to those of GAPDH from the same blots and compared to “Healthy-1, no CCCP, no MG132” except otherwise indicated. n=4. (FIG. 2F) Healthy-1 and PD-2 fibroblasts were transfected as indicated, and immunostained with anti-Myc (Miro1, green) and stained with Dapi (blue). The Miro1 intensity is normalized to that of mito-dsRed from the same cell and quantified across 37-62 cells from 5 fields each transfection, 3 independent transfections. Scale bars: 50 μm. For (FIG. 2C-FIG. 2F), both CCCP and Miro1 Reducer were dissolved in DMSO. […]
# T1 sequence (Q8IXI1 whole entry): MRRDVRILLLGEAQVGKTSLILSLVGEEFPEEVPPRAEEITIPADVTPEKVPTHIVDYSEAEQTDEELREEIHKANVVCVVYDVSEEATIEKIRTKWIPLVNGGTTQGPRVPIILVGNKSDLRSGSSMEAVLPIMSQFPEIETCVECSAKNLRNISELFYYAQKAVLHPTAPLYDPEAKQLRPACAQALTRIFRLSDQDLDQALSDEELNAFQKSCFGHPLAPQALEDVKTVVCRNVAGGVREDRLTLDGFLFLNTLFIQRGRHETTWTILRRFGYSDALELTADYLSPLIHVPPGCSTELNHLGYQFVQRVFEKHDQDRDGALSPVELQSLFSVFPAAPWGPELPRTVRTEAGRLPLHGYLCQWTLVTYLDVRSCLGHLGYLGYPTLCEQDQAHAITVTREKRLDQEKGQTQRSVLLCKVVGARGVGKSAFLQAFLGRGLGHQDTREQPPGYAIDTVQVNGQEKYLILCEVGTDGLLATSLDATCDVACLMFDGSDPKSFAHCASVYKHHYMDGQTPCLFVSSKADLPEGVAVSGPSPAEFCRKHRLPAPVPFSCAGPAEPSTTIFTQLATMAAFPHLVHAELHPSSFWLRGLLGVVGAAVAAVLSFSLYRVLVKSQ
structure (smiles),measurement,value
O=C(Nc1ccc(Nc2cc(-n3ccnc3)ncn2)cc1)Nc1cccc(F)c1 [Miro1 Reducer],influence on Miro2,no influence
